Laboratory results taken from US8268781B2.
Like-named read-outs stand apart in the source and are kept apart here.

Assay: Ex vivo bio-distribution studies
Conditions: In-111 labeled, 555 kBq tail vein, mean of 4 mice; for tissue uptake at 1 h / tissue uptake at 4 h / tissue uptake at 24 h: mouse, iv, total radioactivity; for tissue uptake at 1 h: 1 h p.i.
Method: The in vivo bio-distribution can, for example, be shown in rodents such as hairless mice. For this purpose […] CHO cells are injected into hairless mice. After approx. 3 to 5 weeks tumors approx. 300 mg in size had grown.
1, 4 und 24 h p.i. all the mice are killed and their organs removed.
The uptake of radioactivity is measured and the organs are weighed. The % of injected dose program of organ weight is calculated.
Mean value from the bio-distribution with 4 mice pro group in % i.D./g Stadev: standard deviation.

SMILES: CC[C@H](C)[C@H](NC(=O)[C@H](Cc1ccccc1)NC(=O)[C@H](CCC(=O)O)NC(=O)[C@H](CCCCN)NC(=O)[C@H](C)NC(=O)[C@H](C)NC(=O)[C@H](CCC(N)=O)NC(=O)CNC(=O)[C@H](CCC(=O)O)NC(=O)[C@H](CC(C)C)NC(=O)[C@H](Cc1ccc(O)cc1)NC(=O)[C@H](CO)NC(=O)[C@H](CO)NC(=O)[C@@H](NC(=O)[C@H](CC(=O)O)NC(=O)[C@H](CO)NC(=O)[C@@H](NC(=O)[C@H](Cc1ccccc1)NC(=O)[C@@H](NC(=O)CNC(=O)[C@H](CCC(=O)O)NC(=O)[C@H](C)NC(=O)[C@@H](N)Cc1c[nH]cn1)[C@@H](C)O)[C@@H](C)O)C(C)C)C(=O)N[C@@H](C)C(=O)N[C@@H](Cc1c[nH]c2ccccc12)C(=O)N[C@@H](CC(C)C)C(=O)N[C@H](C(=O)N[C@@H](CCCCN)C(=O)NCC(=O)N[C@@H](CCCNC(=N)N)C(=O)N[C@@H](CCCCNC(=O)CN(CCN(CCN(CC(=O)O)CC(=O)O)CC(=O)O)CC(=O)O)C(N)=O)C(C)C [MC10, (DTPA-Lys^37) GLP1 (7-36) amide]
- Uptake in Blood (4 h p.i.): 0.00 % i.D./g
- Uptake in Muscle (4 h p.i.): 0.00 % i.D./g
- Uptake in Blood (24 h p.i.): 0.00 % i.D./g
- Uptake in Heart (24 h p.i.): 0.00 % i.D./g
- Uptake in Muscle (24 h p.i.): 0.00 % i.D./g
- tissue uptake at 1 h (hairless mice, pancreas, read-out: Uptake in Pancreas): 0.58 %ID/g
- tissue uptake at 4 h (hairless mice, pancreas, 4 h p.i., read-out: Uptake in Pancreas): 0.62 %ID/g
- tissue uptake at 1 h (hairless mice, spleen, read-out: Uptake in Spleen): 0.02 %ID/g
- tissue uptake at 4 h (hairless mice, spleen, 4 h p.i., read-out: Uptake in Spleen): 0.01 %ID/g
- tissue uptake at 24 h (hairless mice, spleen, 24 h p.i., read-out: Uptake in Spleen): 0.01 %ID/g
- tissue uptake at 1 h (hairless mice, stomach, read-out: Uptake in Stomach): 0.14 %ID/g
- tissue uptake at 4 h (hairless mice, stomach, 4 h p.i., read-out: Uptake in Stomach): 0.13 %ID/g
- tissue uptake at 24 h (hairless mice, stomach, 24 h p.i., read-out: Uptake in Stomach): 0.07 %ID/g
- tissue uptake at 24 h (hairless, GLP-1 receptor negative tumor, 24 h p.i., read-out: Uptake in Tumor− (GLP-1 receptor negative tumor)): 0.01 %ID/g
- tissue uptake at 1 h (hairless, GLP-1 receptor positive tumor, read-out: Uptake in Tumor+ (GLP-1 receptor positive tumor)): 0.42 %ID/g
- tissue uptake at 4 h (hairless, GLP-1 receptor positive tumor, 4 h p.i., read-out: Uptake in Tumor+ (GLP-1 receptor positive tumor)): 0.31 %ID/g
- tissue uptake at 24 h (hairless, GLP-1 receptor positive tumor, 24 h p.i., read-out: Uptake in Tumor+ (GLP-1 receptor positive tumor)): 0.2 %ID/g
- tissue uptake at 1 h (hairless, blood, read-out: Uptake in Blood): 0.01 %ID/g
- tissue uptake at 1 h (hairless, liver, read-out: Uptake in Liver): 0.03 %ID/g
- tissue uptake at 4 h (hairless, liver, 4 h p.i., read-out: Uptake in Liver): 0.01 %ID/g
- tissue uptake at 24 h (hairless, liver, 24 h p.i., read-out: Uptake in Liver): 0.01 %ID/g
- tissue uptake at 1 h (GLP-1 receptor negative tumor, read-out: Uptake in Tumor− (GLP-1 receptor negative tumor)): 0.03 %ID/g
- tissue uptake at 4 h (GLP-1 receptor negative tumor, 4 h p.i., read-out: Uptake in Tumor− (GLP-1 receptor negative tumor)): 0.02 %ID/g
- tissue uptake at 1 h (bones, read-out: Uptake in Bones): 0.02 %ID/g
- tissue uptake at 4 h (bones, 4 h p.i., read-out: Uptake in Bones): 0.01 %ID/g
- tissue uptake at 24 h (bones, 24 h p.i., read-out: Uptake in Bones): 0.01 %ID/g
- tissue uptake at 1 h (heart, read-out: Uptake in Heart): 0.02 %ID/g
- tissue uptake at 4 h (heart, 4 h p.i., read-out: Uptake in Heart): 0.01 %ID/g
- tissue uptake at 1 h (intestine, read-out: Uptake in Intestine): 0.12 %ID/g
- tissue uptake at 4 h (intestine, 4 h p.i., read-out: Uptake in Intestine): 0.07 %ID/g
- tissue uptake at 24 h (intestine, 24 h p.i., read-out: Uptake in Intestine): 0.04 %ID/g
- tissue uptake at 1 h (kidneys, read-out: Uptake in Kidneys): 7.9 %ID/g
- tissue uptake at 4 h (kidneys, 4 h p.i., read-out: Uptake in Kidneys): 7.41 %ID/g
- tissue uptake at 24 h (kidneys, 24 h p.i., read-out: Uptake in Kidneys): 4.85 %ID/g
- tissue uptake at 1 h (lungs, read-out: Uptake in Lungs): 0.8 %ID/g
- tissue uptake at 4 h (lungs, 4 h p.i., read-out: Uptake in Lungs): 0.36 %ID/g
- tissue uptake at 24 h (lungs, 24 h p.i., read-out: Uptake in Lungs): 0.22 %ID/g
- tissue uptake at 1 h (muscle, read-out: Uptake in Muscle): 0.01 %ID/g
- tissue uptake at 24 h (pancreas, 24 h p.i., read-out: Uptake in Pancreas): 0.37 %ID/g
